# How the values were obtained:
# [1] = In vivo toxicity analysis, 4-NQO-induced ESCC mice; parameters: species or system mouse
# IL-15 = experiment: ELISA, IL-15 in KYSE70 supernatants; assay type: cell-based, human; settings: 10 µM, 48 hours, vs vehicle supernatants
# [2] = system: AOM/DSS-induced colon cancer; experiment: AOM/DSS-induced spontaneous colon cancer mouse model; assay type: in vivo
# IFN-γ^+CD8^+ T cells [3] = experiment: Ex vivo intracellular cytokine staining, 4-NQO-induced ESCC mice; assay type: in vivo, mouse; settings: 0.5 mg/kg each i.p.
# [4] = Thyroid function in vivo, naive C57BL/6J mice; parameters: species or system mouse; settings: 0.5, 2 and 8 mg/kg i.p. every 2 days for 2 weeks, vs NS group
# 4-NQO-induced ESCC = experiment: 4-NQO-induced spontaneous ESCC mouse model; assay type: in vivo
# APOBEC3B [5] = target: T1, APOBEC3B (Homo sapiens, UniProt Q9UH17); experiment: Fluorescence-based ssDNA cytosine deamination assay; assay type: biochemical; settings: IC50, dose-dependent assay, figure 2D, E
# APOBEC3A [6] = target: T2, APOBEC3A (Homo sapiens, UniProt P31941); experiment: biochemical; settings: read-out: inhibition rate of APOBEC3A deaminase activity
# [7] = In vivo toxicity analysis, AOM/DSS-induced colon cancer mice; parameters: species or system mouse; settings: 0.5 mg/kg each i.p.
# CD8^+ T cells [8] = experiment: Coculture assay: PBMCs cultured in supernatants of KYSE70 cells; assay type: cell-based, human; settings: supernatants of KYSE70 cells pretreated with 10 µM for 48 hours, PBMCs 3 days
# IFN-γ^+CD8^+ T cells [9] = experiment: Ex vivo intracellular cytokine staining, AOM/DSS-induced colon cancer mice; assay type: in vivo, mouse; settings: 0.5 mg/kg each i.p.
# APOBEC3B [10] = experiment: qRT-PCR of APOBEC3B mRNA in KYSE70 cells; assay type: cell-based, human; settings: 48 hours
# APOBEC3G [11] = target: T3, APOBEC3G (Homo sapiens, UniProt Q9HC16); experiment: biochemical; settings: read-out: inhibition rate of APOBEC3G deaminase activity
# CD8^+ T cells [12] = experiment: Activated PBMCs cocultured with KYSE70 cells; assay type: cell-based, human; settings: 10 µM, coculture with KYSE70 cells
# [13] = system: APOBEC3B overexpressed E. coli; experiment: Bacterial resequencing; assay type: cell-based, Escherichia coli; settings: 2 µM for 3 days
# APOBEC3B [14] = target: T1, APOBEC3B; assay type: biochemical
# APOBEC3G [15] = target: T3, APOBEC3G; experiment: MST, APOBEC3G protein; assay type: binding
# APOBEC3A [16] = target: T2, APOBEC3A; experiment: MST, APOBEC3A protein; assay type: binding
# CD8+ T cells = experiment: T cell migration assay; assay type: cell-based, human; settings: supernatant of KYSE70 pretreated with 10 μM for 48 hours
# IL-7 and IL-15 = experiment: qRT-PCR of IL-7 and IL-15 in KYSE70 cells; assay type: cell-based, human; settings: 10 µM
# KYSE70 cells [17] = experiment: Cell viability assay; assay type: cell-based, human; settings: 0.01-100 μM, MTT
# HET-1A cells = experiment: Cell viability assay; assay type: cell-based, human; settings: MTT, 24, 48 and 72 hours
# KYSE150-vector cells = experiment: MST within KYSE150-vector cells
# APOBEC3B [18] = target: T1, APOBEC3B; experiment: Microscale thermophoresis; assay type: binding
# APOBEC3 = experiment: Mouse whole exome sequencing of esophagus tissues; assay type: in vivo
# KYSE70 cells [19] = experiment: Transcriptome sequencing of KYSE70 cells; assay type: cell-based, human; settings: 10 µM for 48 hours
# [20] = 0.5, 2 and 8 mg/kg i.p. every 2 days for 2 weeks
# PD-L1 in KYSE70 cell = experiment: PD-L1 expression by flow cytometry, KYSE70; assay type: cell-based, human; settings: 10 µM and 100 µM, 48 hours
# CD8^+ T cells [21] = experiment: Activated human PBMCs directly treated; assay type: cell-based; settings: 10 µM for 3 days
# IL-7 = experiment: ELISA, IL-7 in KYSE70 supernatants; assay type: cell-based, human; settings: 10 µM, 48 hours, vs vehicle supernatants; IL-7 expression level was too low
# KYSE150-APOBEC3B cells = KYSE150-APOBEC3B cells (Homo sapiens, UniProt Q9UH17); experiment: MST within KYSE150-APOBEC3B cells; assay type: binding
# PD-L1 in RKO cell = experiment: PD-L1 expression by flow cytometry, RKO; assay type: cell-based, human; settings: 48 hours
# [22] = both low (0.5 mg/kg) and high dose (2 mg/kg) i.p.
# T1 sequence (Q9UH17 whole entry): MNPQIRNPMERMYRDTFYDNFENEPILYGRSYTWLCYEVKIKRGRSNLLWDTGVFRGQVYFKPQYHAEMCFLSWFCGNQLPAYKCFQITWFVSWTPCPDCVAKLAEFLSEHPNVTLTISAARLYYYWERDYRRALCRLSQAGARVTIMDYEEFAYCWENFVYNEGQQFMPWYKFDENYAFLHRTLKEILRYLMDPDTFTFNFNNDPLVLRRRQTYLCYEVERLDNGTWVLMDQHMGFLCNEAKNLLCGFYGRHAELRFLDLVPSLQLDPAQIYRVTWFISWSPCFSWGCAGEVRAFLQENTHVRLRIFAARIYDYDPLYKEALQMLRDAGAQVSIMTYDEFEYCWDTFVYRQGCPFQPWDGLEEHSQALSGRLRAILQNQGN
# T2 sequence (P31941 whole entry): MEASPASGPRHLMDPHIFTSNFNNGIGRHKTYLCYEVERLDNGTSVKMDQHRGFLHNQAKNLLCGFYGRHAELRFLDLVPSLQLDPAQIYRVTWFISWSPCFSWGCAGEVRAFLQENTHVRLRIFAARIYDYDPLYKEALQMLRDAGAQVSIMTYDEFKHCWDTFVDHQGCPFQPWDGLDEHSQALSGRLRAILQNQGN
# T3 sequence (Q9HC16 whole entry): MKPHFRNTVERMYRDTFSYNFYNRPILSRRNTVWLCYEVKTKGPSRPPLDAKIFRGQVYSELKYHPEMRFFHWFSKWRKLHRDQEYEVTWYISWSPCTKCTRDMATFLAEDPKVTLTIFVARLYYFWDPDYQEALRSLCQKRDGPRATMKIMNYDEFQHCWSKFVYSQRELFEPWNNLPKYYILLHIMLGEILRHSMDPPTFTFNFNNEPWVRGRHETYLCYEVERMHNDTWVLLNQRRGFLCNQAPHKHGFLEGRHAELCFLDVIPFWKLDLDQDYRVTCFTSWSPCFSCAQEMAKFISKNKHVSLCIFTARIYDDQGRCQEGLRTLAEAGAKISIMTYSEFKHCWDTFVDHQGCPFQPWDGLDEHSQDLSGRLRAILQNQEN
# KYSE150-APOBEC3B cells, sequence (Q9UH17 whole entry): as the sequence (Q9UH17 whole entry) above
compound,measurement,setting,value
"N[C@@H](Cc1cc(I)c(O)c(I)c1)C(=O)O [SMC247, 3,5-diiodotyrosine]",AST and ALT in serum,[1]; 0.5 mg/kg vs NS group,no significant differences
same,H&E staining of main viscera,"[1]; heart, liver, spleen, lung, kidney",no obvious toxic effects
same,secretion level of IL-15,IL-15,significantly greater
same,H&E of colon tissue,[2]; 0.5 mg/kg each i.p.,the colonic mucosa was intact and the glandular cells were basically arranged in order
same,disease activity index (DAI),[2]; 0.5 mg/kg each i.p.,decreased
same,length of colon,[2]; 0.5 mg/kg each i.p.,without changing the length of colon basically
same,number and size of tumors in colonic epithelial tissues,[2]; 0.5 mg/kg each i.p.,significantly reduced
same,body weight loss,[2]; 0.5 mg/kg each i.p. every 2 days for 9 weeks,significantly slow down the trend of body weight loss
same,enteritis phenomenon,"[2]; mouse, in vivo",significantly relieved
same,proportions of IFN-γ^+CD8^+ T cells in both spleen and lymph node,IFN-γ^+CD8^+ T cells [3],increased
same,"thyroid-stimulating hormone, free triiodothyronine (fT3) and free thyroxine (fT4)",[4],no significant difference
same,number and length of ESCC tumor tissue,"4-NQO-induced ESCC; 0.5 mg/kg or 2 mg/kg i.p. every 2 days for 2 weeks, vs NS",significantly reduced
same,body weight,4-NQO-induced ESCC; [22],slow down the loss trend of body weight
same,overall survival of mice,4-NQO-induced ESCC; [22],significantly prolong
same,H&E of esophagus tissues,4-NQO-induced ESCC; combination study,effectively alleviated
same,number and length of ESCC tumor tissues,"4-NQO-induced ESCC; combination study, 0.5 mg/kg each i.p. every 2 days for 2 weeks",significantly reduced
same,IC50,APOBEC3B [5],1690 nM
same,inhibition at 100 µM,APOBEC3A [6],< 50%
same,"toxic effects (H&E of organs, AST and ALT)",[7],no obvious toxic effects
same,promotion effect on CD8^+ T cells,CD8^+ T cells [8],still existed
same,proportions of IFN-γ^+CD8^+ T cells in both spleen and lymph node,IFN-γ^+CD8^+ T cells [9],increased
same,expression of APOBEC3B,APOBEC3B [10],down-regulated
same,inhibition at 100 µM,APOBEC3G [11],< 50%
same,proliferation of CD8^+ T cells and proportion of IFN-γ^+CD8^+ T cells,CD8^+ T cells [12],promoted
same,C>T transversion driven by APOBEC3B in E. coli genome,[13],significant reduced
same,deaminase activity of APOBEC3B,APOBEC3B [14],significantly inhibited
same,product amount,APOBEC3B [14],reduced in a dose-dependent manner
same,binding to APOBEC3G,APOBEC3G [15],weakly bound
same,binding to APOBEC3A,APOBEC3A [16],weakly bound
same,migration of CD8^+ T cells,CD8+ T cells,could not promote the migration
same,IL-7 and IL-15 expression levels (qRT-PCR),IL-7 and IL-15,consistent with the above sequencing results
same,proliferation of KYSE70 cells,KYSE70 cells [17],could not inhibit the proliferation
same,viability of HET-1A cells,HET-1A cells,did not affect the viability
same,affinity to KYSE150-vector cells,KYSE150-vector cells,no affinity
same,Kd,APOBEC3B [18],65 nM
same,C>A mutation type,APOBEC3; 0.5 mg/kg i.p.,reduction
same,contribution of APOBEC activity related signatures (SBS2 and SBS13),APOBEC3; 0.5 mg/kg i.p.,weakened
same,mutation counts of C>T and C>G,APOBEC3; 0.5 mg/kg i.p.,reduced
same,number of mutations at exome levels,"APOBEC3; 0.5 mg/kg i.p. every 2 days for 2 weeks, vs NS",significantly reduced
same,IL-7 and IL-15 expression (transcriptome sequencing),KYSE70 cells [19],significantly upregulated
same,"blood routine indexes (WBC, HGB, PLT, RBC) and blood biochemical (AST and ALT) indexes",[20],within the normal range
same,expression of PD-L1,PD-L1 in KYSE70 cell,up-regulate
same,function of CD8^+ T cells in the absence of tumor cells,CD8^+ T cells [21],did not directly affect the function of CD8^+ T cells
same,secretion level of IL-7,IL-7,significantly greater
same,Kd,KYSE150-APOBEC3B cells,6140 ± 7930 nM
same,expression of PD-L1,PD-L1 in RKO cell,up-regulate
